Patent US11357229B2, “Composition, uses and preparation process thereof, as well as method to ensure high corn crop yield” (priority 2011, dated 2022)

Legend:
Assay type in all cases: in vivo, Zea mays
corn [1] = test: Ethephon applied to corn at stage V8, Nova Mutum; methomyl and pyraclostrobin+epoxyconazole added in all treatments; conditions: V8, 5 g ha^−1 a.i.
Experimental: Example 1—Effect of Growth Regulator Ethephon Applied to Corn at the Stage of Development V8
(§1) In the moment of the application, the insecticide methomyl (215 g ha^−1 a.i.) and the fungicide pyraclostrobin+epoxyconazole (99.75+37.5 g ha^−1 a.i.) were added in all treatments, including the control.

corn [2] = test: Ethephon applied to corn at stage V6, Nova Mutum; chlorantraniliprole and cyproconazole+azoxystrobin added in all treatments; conditions: V6, 5 g ha^−1 a.i.
Experimental: Example 2—Effect of Growth Regulator Ethephon Applied to Corn at the Stage of Development V6
(§2) In the moment of the application, the insecticide chlorantraniliprole (25 g ha^−1 a.i.) and the fungicide cyproconazole+azoxystrobin (24+60 g ha^−1 a.i.) were added in all treatments, including the control.

corn [3] = test: BF 428-5 applied to corn at stage V8, Nova Mutum; methomyl and pyraclostrobin+epoxyconazole added in all treatments; conditions: for Increased Yield: 100,000 plants/ha vs control at normal density
Experimental: Example 5—Effect of Growth Regulator BF 428-5 Applied to Corn at the Stage of Development V8
as §1

corn [4] = test: BF 428-5 applied to corn at stage V6, Nova Mutum; chlorantraniliprole and cyproconazole+azoxystrobin added in all treatments; conditions: for Height (shoot length): 30 DAA; for Increased Yield: 100,000 plants/ha vs control at normal density
Experimental: Example 6—Effect of Growth Regulator BF 428-5 Applied to Corn at the Stage of Development V6
as §2

CSC(=O)c1cccc2nnsc12 [Acybenzolar-S-methyl, acybenzolar-S-methyl]
Ear Diameter (corn [1]): 53.7 mm | Ear Length (corn [1]): 26.5 cm | Yield (corn [1]): 4815.6 kg/ha | Height (shoot length) (corn [1]; 30 DAA): 206.8 cm | Population of corn plants 60,000 plants/ha, kg/corn plant (corn [1]; 60,000 plants/ha): 0.080 kg/corn plant | Ear Diameter (corn [2]): 34.7 mm | Ear Length (corn [2]): 21.9 cm | Yield (corn [2]): 2662.2 kg/ha | Height (shoot length) (corn [2]; 30 DAA): 195.2 cm | Population of corn plants 60,000 plants/ha, kg/corn plant (corn [2]; 60,000 plants/ha): 0.044 kg/corn plant

C[N+](C)(C)CCCl [BF 428-05, chlormequat chloride]
effects on the corn plant (corn [3]; V8): reduction in shoot length, increased formation of adventitious roots, strengthening of the stem, strengthening of the root system, increased ventilation in the culture, proper development of male and female inflorescences | effect on length and diameter of ears of corn (corn [3]; V8 (Table 9)): does not reduce | yield reduction (corn [3]; V8 (Table 9)): no yield reduction | shoot length (corn [3]; V8, 30 DAA, all treatments with BF 428-5 (Table 9)): less than or equal to 218.8 cm | Ear Diameter (corn [3]; V8, 42.5 g ha^−1 a.i.): 54.3 mm | Ear Length (corn [3]; V8, 42.5 g ha^−1 a.i.): 27.8 cm | Yield (corn [3]; V8, 42.5 g ha^−1 a.i.): 5762.2 kg/ha | Height (shoot length) (corn [3]; V8, 42.5 g ha^−1 a.i., 30 DAA): 214.6 cm | Population of corn plants 60,000 plants/ha, kg/corn plant (corn [3]; V8, 42.5 g ha^−1 a.i.): 0.096 kg/corn plant | Population of corn plants 100,000 plants/ha, kg/corn plant (corn [3]; V8, 42.5 g ha^−1 a.i.): 0.096 kg/corn plant | Yield estimates 100,000 plants/ha (corn [3]; V8, 42.5 g ha^−1 a.i.): 9603.7 kg/ha | Increased Yield (corn [3]; V8, 42.5 g ha^−1 a.i.): 89.2% | Ear Diameter (corn [3]; V8, 85 g ha^−1 a.i.): 53.9 mm | Ear Length (corn [3]; V8, 85 g ha^−1 a.i.): 27.3 cm | Yield (corn [3]; V8, 85 g ha^−1 a.i.): 4355.6 kg/ha | Height (shoot length) (corn [3]; V8, 85 g ha^−1 a.i., 30 DAA): 218.8 cm | Population of corn plants 60,000 plants/ha, kg/corn plant (corn [3]; V8, 85 g ha^−1 a.i.): 0.073 kg/corn plant | Population of corn plants 100,000 plants/ha, kg/corn plant (corn [3]; V8, 85 g ha^−1 a.i.): 0.073 kg/corn plant | Yield estimates 100,000 plants/ha (corn [3]; V8, 85 g ha^−1 a.i.): 7259.3 kg/ha | Increased Yield (corn [3]; V8, 85 g ha^−1 a.i.): 43.0% | Ear Diameter (corn [3]; V8, 127.5 g ha^−1 a.i.): 54.2 mm | Ear Length (corn [3]; V8, 127.5 g ha^−1 a.i.): 27.2 cm | Yield (corn [3]; V8, 127.5 g ha^−1 a.i.): 4968.9 kg/ha | Height (shoot length) (corn [3]; V8, 127.5 g ha^−1 a.i., 30 DAA): 217.8 cm | Population of corn plants 60,000 plants/ha, kg/corn plant (corn [3]; V8, 127.5 g ha^−1 a.i.): 0.083 kg/corn plant | Population of corn plants 100,000 plants/ha, kg/corn plant (corn [3]; V8, 127.5 g ha^−1 a.i.): 0.083 kg/corn plant | Yield estimates 100,000 plants/ha (corn [3]; V8, 127.5 g ha^−1 a.i.): 8281.5 kg/ha | Increased Yield (corn [3]; V8, 127.5 g ha^−1 a.i.): 63.2% | yield increases (corn [3]; V8, estimation at 100,000 plants per hectare vs control at normal density of sowing (Table 10)): more than 43% | effects on the corn plant (corn [4]; V6): reduction in shoot length, increased formation of adventitious roots, strengthening of the stem, strengthening of the root system, increased ventilation in the culture, proper development of male and female inflorescences | effect on length and diameter of ears of corn (corn [4]; V6 (Table 11)): does not reduce | yield reduction (corn [4]; V6 (Table 11)): no yield reduction | Ear Diameter (corn [4]; V6, 42.5 g ha^−1 a.i.): 38.4 mm | Ear Length (corn [4]; V6, 42.5 g ha^−1 a.i.): 23.9 cm | Yield (corn [4]; V6, 42.5 g ha^−1 a.i.): 3126.7 kg/ha | Height (shoot length) (corn [4]; V6, 42.5 g ha^−1 a.i.): 206.0 cm | Population of corn plants 60,000 plants/ha, kg/corn plant (corn [4]; V6, 42.5 g ha^−1 a.i.): 0.052 kg/corn plant | Population of corn plants 100,000 plants/ha, kg/corn plant (corn [4]; V6, 42.5 g ha^−1 a.i.): 0.052 kg/corn plant | Yield estimates 100,000 plants/ha (corn [4]; V6, 42.5 g ha^−1 a.i.): 5211.2 kg/ha | Increased Yield (corn [4]; V6, 42.5 g ha^−1 a.i.): 80.5% | Ear Diameter (corn [4]; V6, 85 g ha^−1 a.i.): 37.0 mm | Ear Length (corn [4]; V6, 85 g ha^−1 a.i.): 22.9 cm | Yield (corn [4]; V6, 85 g ha^−1 a.i.): 1902.2 kg/ha | Height (shoot length) (corn [4]; V6, 85 g ha^−1 a.i.): 205.8 cm | Population of corn plants 60,000 plants/ha, kg/corn plant (corn [4]; V6, 85 g ha^−1 a.i.): 0.032 kg/corn plant | Population of corn plants 100,000 plants/ha, kg/corn plant (corn [4]; V6, 85 g ha^−1 a.i.): 0.032 kg/corn plant | Yield estimates 100,000 plants/ha (corn [4]; V6, 85 g ha^−1 a.i.): 3170.3 kg/ha | Increased Yield (corn [4]; V6, 85 g ha^−1 a.i.): 9.8% | Ear Diameter (corn [4]; V6, 127.5 g ha^−1 a.i.): 37.9 mm | Ear Length (corn [4]; V6, 127.5 g ha^−1 a.i.): 21.5 cm | Yield (corn [4]; V6, 127.5 g ha^−1 a.i.): 2500.0 kg/ha | Height (shoot length) (corn [4]; V6, 127.5 g ha^−1 a.i.): 200.3 cm | Population of corn plants 60,000 plants/ha, kg/corn plant (corn [4]; V6, 127.5 g ha^−1 a.i.): 0.042 kg/corn plant | Population of corn plants 100,000 plants/ha, kg/corn plant (corn [4]; V6, 127.5 g ha^−1 a.i.): 0.042 kg/corn plant | Yield estimates 100,000 plants/ha (corn [4]; V6, 127.5 g ha^−1 a.i.): 4166.7 kg/ha | Increased Yield (corn [4]; V6, 127.5 g ha^−1 a.i.): 44.3% | yield increases (corn [4]; V6, estimation at 100,000 plants per hectare vs control at normal density of sowing (Table 12)): more than 9.8%
